Structure (SMILES) | melting point [°C]
O=C1CCN2C(=O)c3cccc(NC(=O)Nc4ccccn4)c3C2C1 (centres undefined) | 254
O=c1c(Br)c(OCc2ccc(Cl)cc2F)cnn1-c1ccc(Cl)c(Cl)c1 | 172 to 173
C1=C(c2ccccc2)CCN(Cc2c[nH]c3ncccc23)C1 | 177 to 179
CN(C)CCNC(=O)c1cn(C)c(=O)c2cc3cccnc3nc12 | 218 to 221
CCOC(=O)c1c(CCCn2cncn2)nc2sc3cnccc3c2c1-c1ccc(OC)c(OC)c1 | 127 to 129
O=C(C1CC1)N1CCC2(CC1)Cc1ccccc1O2 | 111 to 113
O=C(CNC(=O)c1ccc([N+](=O)[O-])c(I(=O)=O)c1)OCC(Cl)(Cl)Cl | 128 to 130
O=C1CN2CCC(CC2)N1 | 121 to 122
CCOC(=O)c1cn2c3c(ccc(Cl)c3c1=O)OCC2C (centres undefined) | 205 to 206
O=C1NC=NC2CN=C(c3ccccc3)c3cc(Cl)ccc3C12 (centres undefined) | 150 to 155
COc1cc(Nc2ncc3cc(-c4c(Cl)cccc4Cl)c(=O)n(C)c3n2)cc(OC)c1 | 228 to 230
Cc1c(N2CCNC(C)C2)c(F)cc2c(=O)c(C(=O)O)cn(C3CC3)c12 (centres undefined) | 206 to 208
CCNc1nc(Nc2ccccc2)ncc1CO | 174 to 176
CN(C)C(=O)C(C)(C)c1cc(C#N)ccc1O | 146 to 148
Cc1ccc(C2=NC(C)(C(C)C)C(=O)N2)cc1 (centres undefined) | 151 to 154
CC(C)(C)OC(=O)CC[C@H](NC(=O)c1ccc(N(CCCl)CCCl)cc1F)C(=O)OC(C)(C)C | 90 to 92
Cc1ccc(-c2cncc(OC3SCC(O)C(O)C3O)c2)o1 (centres undefined) | 188
Cc1cc(=O)n(CCBr)o1 | 39 to 40
CN1CCN(Cc2ccccc2F)C(C2=NCCN2)C1 (centres undefined) | 160 to 162
CCCCc1cn(-c2cccn2CC)c(=O)n1Cc1ccc(-c2ccccc2-c2nnn[nH]2)nc1 | 174 to 175
CCOc1c(C(C)=O)cnc2[nH]ncc12 | 245 to 248
CCC1(CC)NC(=O)Oc2ccc(-c3cccc(Cl)c3)cc21 | 150 to 151
CCc1cnc(-n2cc(CCCOc3c(CC(=O)O)cccc3OC)c(C(C)C)n2)nc1 | 103 to 104
c1ccc2[nH]c(C34CC5CC(CC(C5)C3)C4)cc2c1 | 48

Structure (SMILES) | melting point [°C]
O=C(C=NO)c1cccc(Cl)c1Cl | 109
COc1ccc(-c2nc(CCl)nc3sc(C)c(C)c23)cc1OC | 117 to 118
O=C(CC1CCCC1)c1ccc[nH]1 | 49 to 51
CCCCNc1nc(C=O)c(C#N)cc1C(=O)OCC | 81 to 83
Cc1cccc2[nH]c(=O)n(CCCN3CC=C(c4ccc(Cl)cc4)CC3)c(=O)c12 | 175 to 178
CNC(=NS(=O)(=O)c1ccc(C)cc1)NCCSCc1[nH]cnc1C | 138
C#CC[C@@H](NC(=O)OC(C)(C)C)c1nc2cc(Cl)ccc2c(=O)n1Nc1ccccc1 | 155 to 157
O=C1Nc2ccccc2CCC1NC(CCc1ccccc1)C(=O)OCc1ccccc1 (centres undefined) | 139 to 141
Cc1ccc(-c2[nH]c(-c3ccncc3)nc2C(=O)Nc2nccs2)cc1 | > 250
COc1nc2cc(Cl)c(Cl)c(CSCc3ccccc3)c2nc1OC | 121 to 122
CSc1nn(C(=O)NS(=O)(=O)c2ccccc2OC(F)(F)F)c(=O)n1N | 136
C#CCOCCOC(=O)COc1ccc(Cl)c2cccnc12 | 53
CON=C(C(=O)OC)c1ccccc1ON=C(C)c1cccc(C)c1 | 90
COc1cc(C)ccc1-c1nc(C)c(-c2cccnc2)n1O | 75 to 80
CC(=O)CCCCCC(=O)N[C@@H](C)C(=O)N[C@H](CCC(=O)OCc1ccccc1)C(N)=O | 162
Cc1cncc(C)c1-c1c(C)cc(C(C#N)C#N)cc1C | 58 to 60
OC(CSCc1ccc(Cl)cc1)(Cn1cncn1)c1ccc(Cl)cc1Cl (centres undefined) | 106 to 107
COc1cc(C=CC(=O)Nc2c(C)nc3c(C)cc(C)cc3c2-c2ccccc2Cl)cc(OC)c1OC(C)=O | 225 to 226
CN(C)C(CC(F)C(=O)c1ccccc1)N1CCC(O)(c2ccc(Cl)cc2)CC1 (centres undefined) | 160 to 163
N#Cc1ccc(-c2nc(-c3ccc(F)cc3)c(-c3ccncc3)[nH]2)cc1 | 268 to 269
O=C1c2ccccc2C(=O)N1Cc1ccc(I)cc1Cl | 140 to 142
O=C(NO)OCC1c2ccccc2-c2ccccc21 | 160
NNc1ccc([N+](=O)[O-])cc1S(N)(=O)=O | 209 to 210
CC(C)(C)c1ccc(S(=O)(=O)N(Cc2cc(C(C)(C)C)c(O)c(C(C)(C)C)c2)c2cccnc2)cc1 | 155 to 156

Next, values leading:

melting point [°C] | Structure (SMILES)
184 to 189 | CC(C)NS(=O)(=O)c1cccc(F)c1C#N
213 to 219 | O=[N+]([O-])c1cccc(Nc2nccc(-c3ccccn3)n2)c1
133 to 135 | Cc1noc(NS(=O)(=O)c2ccc(-c3ccccc3)cc2)c1Br
224 to 227 | CCCCCCC1CCC(=O)N1c1ccc(Cl)c(NC2=NN(c3c(Cl)cc(Cl)cc3Cl)C(=O)C2)c1 (centres undefined)
152 | O=[N+]([O-])c1cc(C(F)(F)F)ccc1NCCN1CCN(C(c2ccccc2)c2ccccc2)CC1
156 to 158 | O=C(OC1COC(OC(=O)C2CCCCC2)CO1)C1CCCCC1 (centres undefined)
99 to 101 | O=C(SCC1C(=O)OCC1c1ccc(Cl)cc1)c1ccccc1 (centres undefined)
53 to 54 | C#CCC1(O)CCCCC1
135 to 137 | Cc1c(N2C[C@H](CF)[C@](C)(N)C2)c(F)cc2c(=O)c(C(=O)O)cn([C@@H]3C[C@@H]3F)c12
264 | CCCc1nc2ccnn2c(O)c1Cc1ccc(-c2ccccc2C(N)=O)cc1
142 to 144 | Cc1noc(-c2cn(-c3cccc(-c4ccccc4OC(F)(F)F)c3)cn2)n1
135 to 139 | CC(C)(C)c1cc(C2=CCOCC2)c(O)c(C(C)(C)C)c1
97 to 98 | CCCCn1nc(C)c(CC(=O)O)c1C
260 to 262 | N#Cc1cnc2c(sc3ccccc32)c1Nc1ccc(Cl)cc1Cl
103 to 104 | CCN1C(=O)SC(Cc2ccc(N)cc2)C1=O (centres undefined)
65 to 67 | C#CCC(NC(=O)c1ccc(C)cc1)C(C)=O (centres undefined)
183 to 186 | COC(=O)c1ccc(OC)cc1S(=O)(=O)NC(=O)Nc1nc(C)nc(OC)n1
180 | COc1cccn2c(=O)c(CCOS(C)(=O)=O)c(C)nc12
74 to 75 | FC(F)(F)C1(C(F)(F)F)c2ccccc2Oc2ccccc21
86 | O=S(=O)(c1ccccc1)c1cncc(OC2SCC(O)C(O)C2O)c1 (centres undefined)
132 to 133 | CC(=O)Oc1ccc(Nc2nc(N)ncc2Oc2ccc(Cl)cc2)cc1
73 to 75 | O=S(=O)(Cl)c1ccc(-c2ccc(C(F)(F)F)cc2)s1
132 to 135 | O=[N+]([O-])C=C1NCCN1Cc1ccc(OCC(F)(F)F)nc1
153 to 155 | CC(=O)Nc1cc(C(F)(F)F)ccc1N1CCc2ccccc21
100 to 101 | O=C1NCC(Cc2ccccc2Oc2ccccc2)O1 (centres undefined)
113 to 114 | COc1ccc2[nH]c(S(=O)Cc3nccc(N(C)C)c3Cl)nc2c1 (centres undefined)
